Patent publication US20110021471A1, “REDUCING Abeta42 LEVELS AND Abeta AGGREGATION” (priority 2007, published 2011)

How the values were obtained:
H4Bri-C99 (CTF-3) = tested on: H4Bri-C99 (CTF-3)
Protocol: FIG. 6. […] Parent GSMs and biotin tagged photoactivatable GSMs were evaluated for their effects on Aβ secreted from H4Bri-C99 (CTF-3). Cells were treated with compounds for 6 hours and Aβ measured by ELISA. […] Changes in Aβ (percent control)±s.e.m., n=3.
(§1) Photoaffinity labelling. All experiments used the following general protocol. Samples (recombinant or synthetic peptides, cell lysates and membrane preparations) were exposed in borosilicate test tubes to ultraviolet light (350 nm) in a Rayonet Photoreactor R100 (RPR-3500 lamps, Southern New England Ultra Violet Company) in a cold room (4° C.) for 30 minutes or as otherwise noted. Crosslinked samples were analyzed by ELISA for biotin incorporation, or analyzed directly by SDS-PAGE (Criterion-XT, Bio-Rad), or after precipitation with streptavidin ultralink plus beads (Pierce). After immunblotting, proteins were detected using chemiluminesence (ECL Plus, GEHealthcare) or near-infrared fluorescence (LiCor Odyssey). Full-length APP and APP CTFs (CTF83, CTF99) were detected with CT20, a rabbit polyclonal antibody against the C-terminus of APP. Biotin was detected with an affinity-purified rabbit polyclonal antibody (Bethyl). Cell-based screens for amyloid-β modulation. Human H4 neuroglioma cells (American Type Culture Collection, ATCC) expressing wild-type APP695 protein or CTF105 fused to secreted alkaline phosphatase which is efficiently processed to APP CTFs (CTF83, CTF99) and produce high levels of amyloid-β, were used for the cell-based screens as previously described. Cells were incubated for 5-6 hours in the presence of the various compounds in Opti-Mem culture medium containing 1% fetal bovine serum. Compounds were dissolved in dimethylsulphoxide (DMSO; 0.5% final concentration) and diluted 200-fold. Media was analyzed for various amyloid-β species (40, 42 and total) using ELISAs as described herein. The EC50 values for changes in amyloid-β species were calculated by fitting sigmoid dose-response curves using nonlinear regression in Prism (GraphPad) and are shown as values±s.e.m. Statistical analysis. Data are presented as either percentage control or mean±s.e.m. Results were analyzed using Prism (Graph Pad) with t-tests or one-way analysis of variance analyses (ANOVAs) with Dunnett's post-hoc correction for comparison of multiple samples to a control. Statistical significance is shown as P,0.05 (one asterisk), P,0.01 (two asterisks) or P,0.001 (three asterisks).

γ-secretase = γ-secretase (Homo sapiens, UniProt P49768); assay: Cell-free in vitro γ-secretase assay; assay type: biochemical
Protocol: FIG. 5. Fenofibrate-Biotin (Fen-B) is an Aβ42 raising GSM that labels cell-derived APP-CTF. (A) The effects of fenofibrate and fenofibrate-biotin (Fen-B) on Aβ production were investigated in a cell-free in vitro γ-secretase assay performed as described in the methods. […] Percent control Aβ species±s.e.m., n=2. (B) Fen-B labels APP-CTFs from cells lysates. CHAPSO solubilized membrane fractions from H4 APP-CTF-105-AP cells were irradiated (350 nm) in the presence of Fen-B (50 μM) for 30 minutes. Biotinylated material was precipitated with streptavidin overnight (SAv). Beads were washed (3×) and then incubated with XT sample buffer, heated to 95° C., run on 12% Criterion XT gels, and transferred to nitrocellulose membranes. Blots were probed for biotin (Bethyl) and APP (CT20). Excess drug (Fen-B) and unlableled APP-CTF is detected in the flow-through from the beads (unbound lane). Biotin bound to streptavdin (SAv) is detected by the anti-biotin antibody. APP-CTF-83 is pulled down in lane 2 and is reactive with anti-biotin and anti-APP (CT20).
Congo red (CR) and chrysamine G (CG), two of the most well characterized amyloid-β dyes, act as GSMs in cell-free γ-secretase assays.

[1] = target: T1, γ-secretase (PSEN1, NCSTN, APH1, PEN2) (UniProt +P49768+Q96BI3+Q9NZ42); assay: Photoaffinity labelling of purified γ-secretase preparation; assay type: binding; conditions: Fen-B 300 μM
T1 construct: made in house; host or cells: CHO c-30 (γ-30) cells

APP(C100)-Flag = target: T2, APP(C100)-Flag (Homo sapiens, UniProt P05067); assay: Photoaffinity labelling of APP(C100)-Flag and competition; assay type: binding
T2 construct: APP(C100)-Flag, comprising the 99 C-terminal residues of APP plus a methionine at the N-terminus; added methionine (N)
T2 sequence (P05067 672-770 limits assumed): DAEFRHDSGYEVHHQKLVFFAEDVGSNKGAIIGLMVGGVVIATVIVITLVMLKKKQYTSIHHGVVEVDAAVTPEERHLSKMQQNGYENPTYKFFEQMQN
Protocol: (§2) FIG. 1. […] The top panel is for anti-biotin staining; the middle panel is for anti-FLAG staining; and the bottom panel is an overlay of anti-biotin (red and anti-Flag green, LiCor Odyssey imaging). (E) Same samples as in D, but analyzed using an ELISA. Following crosslinking, C100Flag and N100 Flag were captured using anti-FLAG plate, and biotin incorporation was measured using streptavidin-HRP. […] Fen-B (50 μM) was crosslinked to Aβ (10 μM). Biotin labeling was measured following capture with an anti-Aβ1-16 antibody and detection with streptavidin-HRP.
as §1
The ability of a purified, recombinant Flag-tagged γ-secretase substrate derived from APP (APP(C100)-Flag, comprising the 99 C-terminal residues of APP plus a methionine at the N-terminus) to be labeled by Fen-B and Flurbi-BpB was tested.

Notch (C100)-Flag = target: T3, Notch (C100)-Flag (Mus musculus, UniProt Q01705); assay: Photoaffinity labelling of Notch (C100)-Flag; assay type: binding
T3 construct: a recombinant substrate derived from mouse Notch (Notch (C100)-Flag)
T3 sequence (Q01705 1711-1809 limits assumed): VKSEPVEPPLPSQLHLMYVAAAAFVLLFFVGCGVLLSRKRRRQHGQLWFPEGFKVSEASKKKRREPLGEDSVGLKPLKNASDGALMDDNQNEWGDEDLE
Protocol: Photoaffinity labelling. All experiments used the following general protocol. Samples (recombinant or synthetic peptides, cell lysates and membrane preparations) were exposed in borosilicate test tubes to ultraviolet light (350 nm) in a Rayonet Photoreactor R100 (RPR-3500 lamps, Southern New England Ultra Violet Company) in a cold room (4° C.) for 30 minutes or as otherwise noted. Crosslinked samples were analyzed by ELISA for biotin incorporation, or analyzed directly by SDS-PAGE (Criterion-XT, Bio-Rad), or after precipitation with streptavidin ultralink plus beads (Pierce). After immunblotting, proteins were detected using chemiluminesence (ECL Plus, GEHealthcare) or near-infrared fluorescence (LiCor Odyssey). Full-length APP and APP CTFs (CTF83, CTF99) were detected with CT20, a rabbit polyclonal antibody against the C-terminus of APP. Biotin was detected with an affinity-purified rabbit polyclonal antibody (Bethyl). Cell-based screens for amyloid-β modulation. […] Media was analyzed for various amyloid-β species (40, 42 and total) using ELISAs as described herein. The EC50 values for changes in amyloid-β species were calculated by fitting sigmoid dose-response curves using nonlinear regression in Prism (GraphPad) and are shown as values±s.e.m. […]

[2] = target: amyloid-β peptides (Aβ1-40, Aβ1-36, Aβ1-28, Flag-Aβ25-36) (Homo sapiens, UniProt P05067); assay: Photoaffinity labelling of amyloid-β peptides; assay type: binding
Protocol: as §2, §1
Because the putative binding region of GSMs is also found in full-length APP, labeling of both APP fragments in cells was assayed.

APP-CTF = target: T4, APP-CTF (Homo sapiens, UniProt P05067); assay: Photoaffinity labelling of APP and APP CTF in H4 cell membrane fractions and competition; assay type: binding; conditions: microsomal membrane fractions from H4 cells expressing wild-type APP
T4 construct: this protein was designated α-secretase-derived APP CTF (CTF83) on the basis of molecular weight; expressed in transfected cells
T4 sequence (P05067 688-770 limits assumed): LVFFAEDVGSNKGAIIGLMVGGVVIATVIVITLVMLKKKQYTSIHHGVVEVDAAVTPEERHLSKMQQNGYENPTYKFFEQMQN
Protocol: Photoaffinity labelling. All experiments used the following general protocol. Samples (recombinant or synthetic peptides, cell lysates and membrane preparations) were exposed in borosilicate test tubes to ultraviolet light (350 nm) in a Rayonet Photoreactor R100 (RPR-3500 lamps, Southern New England Ultra Violet Company) in a cold room (4° C.) for 30 minutes or as otherwise noted. Crosslinked samples were analyzed by ELISA for biotin incorporation, or analyzed directly by SDS-PAGE (Criterion-XT, Bio-Rad), or after precipitation with streptavidin ultralink plus beads (Pierce). After immunblotting, proteins were detected using chemiluminesence (ECL Plus, GEHealthcare) or near-infrared fluorescence (LiCor Odyssey). Full-length APP and APP CTFs (CTF83, CTF99) were detected with CT20, a rabbit polyclonal antibody against the C-terminus of APP. Biotin was detected with an affinity-purified rabbit polyclonal antibody (Bethyl). Cell-based screens for amyloid-β modulation.

- Aβ42 in cell-free γ-secretase assay (γ-secretase): raise Aβ42 with similar potencies
- labeling of CTF-γ (CTF-50) (APP(C100)-Flag; peptides 5 μM, Fen-B 25 μM, 30 minutes): no evidence for binding to CTF-γ
- labeling of Aβ1-28 [2]: did not label
- labeling of Aβ1-36 [2]: efficiently labeled
- labeling of Aβ1-40 [2]: efficiently labeled
- labeling of Flag-tagged Aβ25-36 [2]: preferentially label
- labeling of full-length APP and APP CTFs (APP-CTF): labeled full-length APP and APP CTFs
SMILES: CC(C)(Oc1ccc(C(=O)c2ccc(Cl)cc2)cc1)C(=O)NCCCCCNC(=O)CCCCC1SCC2NC(=O)NC21 (stereo not drawn) [Fen-B, N-(5-(2-(4-(4-chlorobenzoyl)phenoxy)-2-methylpropanamido)pentyl)-5-(2-oxo-hexahydro-1H-thieno[3,4-d]imidazol-4-yl)pentanamide]
- Toxicity, based on cell morphology and XTT assay (H4Bri-C99 (CTF-3)): toxic at higher doses
- Aβ42 increase (H4Bri-C99 (CTF-3); 33 μM, 6 hours): ~200%
- labeling of γ-secretase components [1]: Absence of PS1, NCT, APH1, and Pen2 labeling
- labeling of APP(C100)-Flag (APP(C100)-Flag): label a recombinant APP c-secretase substrate (APP(C100)-Flag) with similar potency
- labeling of Notch (C100)-Flag (Notch (C100)-Flag): less efficient than Fen-B labeling of the APP(C100)-Flag
